In patent US12286401B2, “Small molecules that sensitize HIV-1 infected cells to antibody dependent cellular cytotoxicity” (THE TRUSTEES OF THE UNIVERSITY OF PENNSYLVANIA, priority 2018, dated 2025):

Tested on: primary CD4+ T cells infected with CH58 TF
Experiment: FACS-based ADCC assay with patient sera/plasma
Assay type: cell-based, HIV-1
Details: 50 μM; 1/1,000 dilution of plasma from 15 HIV-1-infected individuals; result in words
Experimental: Measurement of antibody or serum-mediated ADCC is performed with a FACS-based assay as described in Prevost, “Influence of the Envelope gp120 Phe 43 Cavity on HIV-1 Sensitivity to Antibody-Dependent Cell-Mediated Cytotoxicity Responses,” 2017, J. Virol 91; Richard, “CD4 mimetics sensitize HIV-1-infected cells to ADCC,” 2015, Proc. Natl. Acad. Sci. USA, 112:E2687-2694; Richard, “Small CD4 Mimetics Prevent HIV-1 Uninfected Bystander CD4+ T Cell Killing Mediated by Antibody-dependent Cell-mediated Cytotoxicity,” 2016, EBioMedicine 3:122-134; Veillette, “The HIV-1 gp120 CD4-Bound Conformation Is Preferentially Targeted by Antibody-Dependent Cellular Cytotoxicity-Mediating Antibodies in Sera from HIV-1-Infected Individuals,” 2015, J. Virol., 89:545-551; Veillette, “Interaction with cellular CD4 exposes HIV-1 envelope epitopes targeted by antibody-dependent cell-mediated cytotoxicity,” 2014, J. Virol., 88:2633-2644; Richard, “Uninfected Bystander Cells Impact the Measurement of HIV-Specific Antibody-Dependent Cellular Cytotoxicity Responses,” 2018, MBio. 9(2): e00358-18; Richard, “BST-2 Expression Modulates Small CD4-Mimetic Sensitization of HIV-1-Infected Cells to Antibody-Dependent Cellular Cytotoxicity,” 2017, J. Virol. 91(11):e00219-17. This assay specifically measures ADCC activity against productively infected cells and is not affected by the confounding effect of uninfected bystander cells. See, Richard, “Uninfected Bystander Cells Impact the Measurement of HIV-Specific Antibody-Dependent Cellular Cytotoxicity Responses,” 2018, MBio., 9(2): e00358-18.
Briefly, primary CD4+ T cells isolated from healthy HIV-1-negative individuals or CEM-NKr cells are infected with HIV viruses. Forty-eight hours post-infection, cells are incubated with autologous PBMC (effector:target cell ratio of 10:1) in the presence of 1:1000 HIV+ sera dilution or anti-Env Abs (5 μg/mL) alone or in combination with increasing concentration of MCG analogs. Infected cells are identified by intracellular staining for HIV-1 p24 or GFP expression (for GFP expressing infectious molecular clones) and the percentage of cytotoxicity is calculated the following formula as described.
For cells infected with HIV-1 primary isolates, infected cells are identified by intracellular staining for HIV-1 p24. In that context, the percentage of cytotoxicity is calculated with the following formula by gating infected lived target cells: […]
The ADCC susceptibility of primary CD4+ T cells infected with CH58 TF mediated by HIV+ plasma+/−MCG analogs also was evaluated using a FACS-based assay as previously reported. See, Ding, 2016, J Virol., 90:2127-2134; and Richard, 2018, MBio 9.
Briefly, Primary CD4 T cells isolated from PBMC were infected with HIV-1CH58TF for 48 hours. For cell surface staining, 5 μg/ml 17b (FIG. 15A) or 1:1000 diluted HIV+ plasma (n=15) (FIG. 15B) were used in the presence of the different MCG analogs (50 μM), (+)-BNM-III-170 or with an equivalent volume of vehicle (DMSO). An Alexa Fluor 647-conjugated anti-human IgG secondary Ab was then used for fluorescent labeling. For ADCC (FIG. 15C), infected cells were used as target cells in a FACS-based ADCC assay that measures the killing of infected (p24+ cells). See, Madani, 2016, J. Virol., 90:5031-5046. The assay determines susceptibility to ADCC mediated by a 1/1,000 dilution of plasma from 15 HIV-1-infected individuals in the presence of the different MCG analogs (50 μM), (+)-BNM-III-170 (50 μM) or with an equivalent volume of vehicle (DMSO). Correlation between cell-surface staining with HIV+ plasma and ADCC was calculated using the Spearman rank correlation (FIG. 15D).

For `CS(=O)(=O)N1CCC[C@H](C(=O)Nc2ccc(Cl)c(F)c2)C1` [(S)-MCG-III-027-D05], the “ADCC responses against infected cells” value was “enhanced ADCC responses”.
`COC(=O)N1CCC[C@H](C(=O)Nc2ccc(Cl)c(F)c2)C1` [(S)-MCG-III-188-A01] was tested, and the “ADCC responses against infected cells” value was “enhanced ADCC responses”.
For `CCOC(=O)N1CCC[C@H](C(=O)Nc2ccc(Cl)c(F)c2)C1` [(S)-MCG-III-188-A02], the “ADCC responses against infected cells” value was “enhanced ADCC responses”.
With `CCCNC(=O)N1CCC[C@H](C(=O)Nc2ccc(Cl)c(F)c2)C1` [(S)-MCG-IV-031-A05] the “ADCC responses against infected cells” value was “enhanced ADCC responses”.
With `NCCNC(=O)N1CCC[C@H](C(=O)Nc2ccc(Cl)c(F)c2)C1` [(S)-MCG-IV-210] the “ADCC responses against infected cells” value was “enhanced ADCC responses”.

Same assay, conditions: Human immunodeficiency virus 1, CD4+ T, read-out: Fold over DMSO (% ADCC with ps, n = 3)

Point of comparison: `CS(=O)(=O)N1CCC[C@H](C(=O)Nc2ccccc2Cl)C1` [(S)-MCG-III-027-C01], fold induction at 50 µM 0.722. Against it:
- CS(=O)(=O)N1CCC[C@H](C(=O)Nc2ccc(Br)cc2)C1 [(S)-MCG-III-027-A02] — lower, 0.291
- CS(=O)(=O)N1CCC[C@H](C(=O)Nc2ccc(F)cc2)C1 [(S)-MCG-III-027-A03] — higher, 0.969
- CS(=O)(=O)N1CCC[C@H](C(=O)Nc2cccc(Cl)c2)C1 [(S)-MCG-III-027-B01] — higher, 0.87
- CS(=O)(=O)N1CCC[C@H](C(=O)Nc2cccc(Br)c2)C1 [(S)-MCG-III-027-B02] — higher, 0.74
- CS(=O)(=O)N1CCC[C@H](C(=O)Nc2cccc(F)c2)C1 [(S)-MCG-III-027-B03] — higher, 1.17
- CS(=O)(=O)N1CCC[C@H](C(=O)Nc2cccc(C(F)(F)F)c2)C1 [(S)-MCG-III-027-B04] — lower, 0.129
- COc1cccc(NC(=O)[C@H]2CCCN(S(C)(=O)=O)C2)c1 [(S)-MCG-III-027-B05] — lower, 0.361
- CS(=O)(=O)N1CCC[C@H](C(=O)Nc2ccc(F)cc2F)C1 [(S)-MCG-III-027-D04] — higher, 1.37
- CS(=O)(=O)N1CCC[C@H](C(=O)Nc2ccc(Cl)c(F)c2)C1 [(S)-MCG-III-027-D05] — higher, 1.01
- CCS(=O)(=O)N1CCC[C@H](C(=O)Nc2ccc(Cl)c(F)c2)C1 [(S)-MCG-III-085-C01] — lower, 0.487
- Cn1cnc(S(=O)(=O)N2CCC[C@H](C(=O)Nc3ccc(Cl)c(F)c3)C2)c1 [(S)-MCG-III-116-A02] — higher, 1.86
- COC(=O)N1CCC[C@H](C(=O)Nc2ccc(Cl)c(F)c2)C1 [(S)-MCG-III-188-A01] — higher, 2.27
- CCOC(=O)N1CCC[C@H](C(=O)Nc2ccc(Cl)c(F)c2)C1 [(S)-MCG-III-188-A02] — higher, 0.867
- O=C(Nc1ccc(Cl)c(F)c1)C1CCCN(S(=O)(=O)c2ccccc2)C1 (stereo not shown) [MCG-III-157-B03] — higher, 1.94
- Cn1cnc(S(=O)(=O)N2CCCC(C(=O)Nc3ccc(Cl)c(F)c3)C2)c1 (stereo not shown) [MCG-III-157-B04] — higher, 1.73
- O=C(Nc1ccc(Cl)c(F)c1)C1CCCOC1 (stereo not shown) [MCG-III-207] — higher, 1.59
